Assay results: ChEMBL document CHEMBL3627642 (Bioorg Med Chem, 2015)

How the values were obtained:
[1] = Inhibition of thrombin-induced rabbit platelet aggregation after 4 hrs in presence of rabbit liver microsomes; set-up: species or system Oryctolagus cuniculus
Rattus norvegicus = experiment: Antithrombotic activity in Sprague-Dawley rat venous thrombosis model assessed as reduction of thrombus weight administered intragastrically qd for 3 days measured 2 hrs after last dose; format: functional, organism-based
Mus musculus = experiment: Toxicity in mouse assessed as bleeding time at 22 mg/kg, po administered 90 mins before surgery measured up to 15 mins by tail bleeding test; format: organism-based; details: in vivo
Prothrombin = Prothrombin (Homo sapiens, UniProt P00734); experiment: Inhibition of human thrombin using tosyl-glycyl-prolyl-arginine-4-nitranilide acetate as substrate preincubated for 10 mins by spectrophotometer analysis

SMILES | IC50 [1] [µM] | Activity (Rattus norvegicus) | Activity (Mus musculus) | IC50 (Prothrombin) [µM]
CCCCCOC(=O)/N=C(\N)c1ccc(CC2c3nc4cc(C(=O)N(CCC(=O)OCC)c5ccccn5)ccc4n3CCN2C(=O)OCCCCC)cc1 (stereo not given) | 17.9 | – | – | –
CCOC(=O)CCN(C(=O)c1ccc2c(c1)nc1n2CCNC1Cc1ccc(/C(N)=N/C(=O)OCC)cc1)c1ccccn1 (stereo not given) | 4.09 | – | – | –
CCOC(=O)CCN(C(=O)c1ccc2c(c1)nc1n2CCN(C(=O)OC(C)C)C1Cc1ccc(/C(N)=N/C(=O)OC(C)C)cc1)c1ccccc1 (stereo not given) | 0.86 | Dose-dependent effect | – | –
CCOC(=O)CCN(C(=O)c1ccc2c(c1)nc1n2CCNC1Cc1ccc(/C(N)=N/C(=O)OC(C)(C)C)cc1)c1ccccn1 (stereo not given) | 3.32 | – | – | –
CCOC(=O)CCN(C(=O)c1ccc2c(c1)nc1n2CCN(C(=O)OC(C)(C)C)C1Cc1ccc(/C(N)=N/C(=O)OC(C)(C)C)cc1)c1ccccn1 (stereo not given) | 13.8 | – | – | –
CCOC(=O)CCN(C(=O)c1ccc2c(c1)nc1n2CCN(C(=O)OC(C)C)C1Cc1ccc(/C(N)=N/C(=O)OC(C)C)cc1)c1ccccn1 (stereo not given) | 1.52 | – | – | –
CCCCCCOC(=O)/N=C(\N)c1ccc(CC2c3nc4cc(C(=O)N(CCC(=O)OCC)c5ccccc5)ccc4n3CCN2C(=O)OCCCCCC)cc1 (stereo not given) | 0.91 | Dose-dependent effect | Non-toxic | –
CCOC(=O)CCN(C(=O)c1ccc2c(c1)nc1n2CCN(C(=O)OCC)C1Cc1ccc(/C(N)=N/C(=O)OCC)cc1)c1ccccn1 (stereo not given) | 3.42 | – | – | –
CCCCCCOC(=O)/N=C(\N)c1ccc(CC2NCCn3c2nc2cc(C(=O)N(CCC(=O)OCc4nc(C)c(C)nc4C)c4ccccn4)ccc23)cc1 (stereo not given) | 0.64 | Dose-dependent effect | Non-toxic | –
CCCCCCOC(=O)/N=C(\N)c1ccc(CC2c3nc4cc(C(=O)N(CCC(=O)OCC)c5ccccn5)ccc4n3CCN2C(=O)OCCCCCC)cc1 (stereo not given) | 0.75 | Dose-dependent effect | Non-toxic | –
CCOC(=O)CCN(C(=O)c1ccc2c(c1)nc1n2CCNC1Cc1ccc(/C(N)=N/C(=O)OC(C)C)cc1)c1ccccc1 (stereo not given) | 1.54 | Dose-dependent effect | Toxic | –
CCCCCOC(=O)/N=C(\N)c1ccc(CC2NCCn3c2nc2cc(C(=O)N(CCC(=O)OCC)c4ccccn4)ccc23)cc1 (stereo not given) | 27.2 | – | – | –
N=C(N)c1ccc(CC2NCCn3c2nc2cc(C(=O)N(CCC(=O)O)c4ccccc4)ccc23)cc1 (stereo not given) | – | – | – | 0.00748
CCOC(=O)CCN(C(=O)c1ccc2c(c1)nc1n2CCN(C(=O)OCC(C)C)C1Cc1ccc(/C(N)=N/C(=O)OCC(C)C)cc1)c1ccccn1 (stereo not given) | 8.72 | – | – | –
CCCCCCOC(=O)NC(=N)c1ccc(NCc2nc3cc(C(=O)N(CCC(=O)OCC)c4ccccn4)ccc3n2C)cc1 [DABIGATRAN ETEXILATE] | 0.34 | Dose-dependent effect | – | –
CCCCCCOC(=O)/N=C(\N)c1ccc(CC2NCCn3c2nc2cc(C(=O)N(CCC(=O)OCc4nc(C)c(C)nc4C)c4ccccc4)ccc23)cc1 (stereo not given) | 1.21 | Dose-dependent effect | Toxic | –
CCOC(=O)CCN(C(=O)c1ccc2c(c1)nc1n2CCNC1Cc1ccc(/C(N)=N/C(=O)OCc2ccccc2)cc1)c1ccccn1 (stereo not given) | 5.96 | – | – | –
CCCCCCOC(=O)/N=C(\N)c1ccc(CC2NCCn3c2nc2cc(C(=O)N(CCC(=O)OCC)c4ccccc4)ccc23)cc1 (stereo not given) | 1.44 | Dose-dependent effect | Non-toxic | –
N=C(N)c1ccc(CC2NCCn3c2nc2cc(C(=O)N(CCC(=O)O)c4ccccn4)ccc23)cc1 (stereo not given) | 0.6 | – | – | 0.0092
CCOC(=O)CCN(C(=O)c1ccc2c(c1)nc1n2CCN(C(=O)OCc2ccccc2)C1Cc1ccc(/C(N)=N/C(=O)OCc2ccccc2)cc1)c1ccccn1 (stereo not given) | 9.66 | – | – | –
CCCCCCOC(=O)/N=C(\N)c1ccc(CC2NCCn3c2nc2cc(C(=O)N(CCC(=O)OCC)c4ccccn4)ccc23)cc1 (stereo not given) | 0.73 | Dose-dependent effect | Toxic | –
CCOC(=O)CCN(C(=O)c1ccc2c(c1)nc1n2CCNC1Cc1ccc(/C(N)=N/C(=O)OCC(C)C)cc1)c1ccccn1 (stereo not given) | 0.84 | – | – | –
CCOC(=O)CCN(C(=O)c1ccc2c(c1)nc1n2CCNC1Cc1ccc(/C(N)=N/C(=O)OC(C)C)cc1)c1ccccn1 (stereo not given) | 0.87 | – | – | –
